Laboratory results taken from patent US20250049798A1, “WEE1 PROTEIN KINASE DEGRADATION AGENT AND USE THEREOF” (HANGZHOU GLUBIO PHARMACEUTICAL CO. LTD., priority 2021, published 2025).
pIC50: −log10 of the molar value. Where two headings read alike, the source gives them in different places.

Tests used:
HiBiT tagged Wee1 = HiBiT tagged Wee1 (Homo sapiens, UniProt P30291); assay: Wee1 protein degradation assay (HiBiT assay); type: cell-based; conditions: engineered HT-1080 cells, 20 hours; for Dmax: maximum percentage of Wee1 degradation, read-out: HiBiT Wee1: Dmax
NCI-H1048 cells = assay: NCI-H1048 cell proliferation assay (CTG assay); type: cell-based; conditions: 120 hours, read-out: CTG cellular assay_H1048: IC50
Experimental: NCI-H1048 Cell Proliferation Assay (CTG Assay) The following is an example of an assay that can be used to determine the anti-proliferative activity of Wee1 PROTACs in a small cell lung cancer cell line, NCI-H1048 (ATCC Cat #CRL-5853). This cell line was cultured in RPMI-1640 medium supplemented with 10% FBS. About 1,200 NCI-H1048 cells in 50 μL of culture medium were seeded into a 384-well plate (Cat #3764, Corning), pre-spotted with compounds using the Echo 650 liquid handler (Beckman). The dose-response-curve (DRC) typically has 10-points with a highest concentration at 10 μM, and half-log diluted to as low as 0.316 nM, plus a DMSO control. Assay plates were incubated at 37° C. with 5% CO2 for 120 hours. After that, 20 μL of the CellTiter-Glo (CTG) Luminescent Cell Viability Assay Reagent (Cat #G7573, Promega) was added to each well and incubated at room temperature for 30 minutes. Luminescence was then measured with Pherastar microplate reader (BMG Labtech). All percentage of cell growth inhibition curves were processed using Collaborative Drug Discovery Vault.
Cell viability reads in compound-treated wells were normalized to that of DMSO control and expressed as Percent of Control (PoC, y). A four Parameter Logistic Model was used to determine the compound's EC50 and DC50, using the following equation: […]

HiBiT tagged Wee1, sequence (P30291 whole entry): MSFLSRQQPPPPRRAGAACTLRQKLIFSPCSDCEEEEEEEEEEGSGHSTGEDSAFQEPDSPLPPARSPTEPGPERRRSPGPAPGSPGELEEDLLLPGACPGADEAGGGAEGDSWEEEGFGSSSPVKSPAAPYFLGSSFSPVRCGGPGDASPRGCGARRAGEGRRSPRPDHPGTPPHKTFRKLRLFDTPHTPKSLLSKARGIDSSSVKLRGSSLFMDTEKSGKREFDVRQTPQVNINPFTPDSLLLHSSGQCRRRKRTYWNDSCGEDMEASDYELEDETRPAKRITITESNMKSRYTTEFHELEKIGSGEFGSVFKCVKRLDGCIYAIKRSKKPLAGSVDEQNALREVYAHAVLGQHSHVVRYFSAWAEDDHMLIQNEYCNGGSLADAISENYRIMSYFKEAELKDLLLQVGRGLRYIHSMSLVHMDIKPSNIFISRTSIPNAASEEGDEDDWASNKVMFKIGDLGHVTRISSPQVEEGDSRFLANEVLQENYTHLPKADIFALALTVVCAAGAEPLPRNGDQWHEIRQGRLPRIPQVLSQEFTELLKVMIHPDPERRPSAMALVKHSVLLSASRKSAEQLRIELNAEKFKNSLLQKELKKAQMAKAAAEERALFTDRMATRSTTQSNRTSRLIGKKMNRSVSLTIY

SMILES | DC50 (HiBiT tagged Wee1) | Dmax (HiBiT tagged Wee1) | pIC50 (NCI-H1048 cells; Homo sapiens) | pIC50 (NCI-H1048 cells)
C=CCn1c(=O)c2cnc(Nc3ccc(N4CCC(CN5CCN(c6ccc(NC7CCC(=O)NC7=O)cc6F)CC5)CC4)cc3)nc2n1-c1cccc(C(C)(C)O)n1 (single isomer, unassigned) [Compound 100-A] | < 0.1 µM | > 75% | ≥ 7.60 | –
C=CCn1c(=O)c2cnc(Nc3ccc(N4CCC(CN5CCN(c6ccc(NC7CCC(=O)NC7=O)cc6F)CC5)CC4)cc3)nc2n1-c1cccc(C(C)(C)O)n1 (single isomer, unassigned) [Compound 100-B] | < 0.1 µM | – | – | ≥ 7.60
C=CCn1c(=O)c2cnc(Nc3ccc(N4CCC(CN5CCN(c6ccc(NC7CCC(=O)NC7=O)cc6F)CC5)CC4)cc3)nc2n1-c1ccc2c(n1)[C@@](C)(O)CC2 (single isomer, unassigned) [Compound 121] | < 0.1 µM | > 75% | ≥ 7.60 | –
C[C@]1(O)CC/C=C\Cn2c(=O)c3cnc(Nc4ccc(N5CCN(CC6CCN(c7ccc(NC8CCC(=O)NC8=O)cc7F)CC6)CC5)cc4)nc3n2-c2cccc1n2 (single isomer, unassigned) [Compound 141] | < 0.1 µM | > 75% | ≥ 7.60 | –
C=CCn1c(=O)c2cnc(Nc3ccc(N4CCN(CC5CCN(c6ccc(NC7CCC(=O)NC7=O)cc6F)CC5)CC4)cc3)nc2n1-c1ccc2c(n1)[C@@](O)(CC)CC2 (single isomer, unassigned) [Compound 150-A] | < 0.1 µM | > 75% | ≥ 7.60 | –
C=CCn1c(=O)c2cnc(Nc3ccc(N4CCN(CC5CCN(c6ccc(NC7CCC(=O)NC7=O)cc6F)CC5)CC4)cc3)nc2n1-c1ccc2c(n1)[C@](C)(O)CC2 (single isomer, unassigned) [Compound 152-A] | < 0.1 µM | – | ≥ 7.60 | –
C=CCn1c(=O)c2cnc(Nc3ccc(N4CCC(CN5CCN(c6ccc(NC7CCC(=O)NC7=O)cc6F)CC5)CC4)c(C)c3)nc2n1-c1ccc2c(n1)[C@@](O)(CC)CC2 (stereo partly drawn) [Compound 134] | < 0.1 µM | > 75% | – | –
C=CCn1c(=O)c2cnc(Nc3ccc(N4CCC(CN5CCN(c6ccc7c(N8CCC(=O)NC8=O)nn(C)c7c6)CC5)CC4)c(C)c3)nc2n1-c1ccc2c(n1)[C@@](O)(CC)CC2 [Compound 135] | < 0.1 µM | > 75% | – | –
C=CCn1c(=O)c2cnc(Nc3ccc(N4CCN(CC5CCN(c6ccc(NC7CCC(=O)NC7=O)cn6)CC5)CC4)cc3)nc2n1-c1ccc2c(n1)[C@@](O)(CC)CC2 (stereo partly drawn) [Compound 136] | < 0.1 µM | > 75% | – | –
C=CCn1c(=O)c2cnc(Nc3ccc(N4CCN(CC5CCN(c6ccc7c(N8CCC(=O)NC8=O)nn(C)c7c6)CC5)CC4)c(C)c3)nc2n1-c1ccc2c(n1)[C@@](C)(O)CC2 [Compound 138] | < 0.1 µM | 50 to 75% | – | –
C=CCn1c(=O)c2cnc(Nc3ccc(N4CCN(C[C@@H]5CCN(c6ccc(NC7CCC(=O)NC7=O)cc6F)C5)CC4)cc3)nc2n1-c1cccc(C(C)(C)O)n1 (stereo partly drawn) [Compound 139] | < 0.1 µM | > 75% | – | –
C=CCn1c(=O)c2cnc(Nc3ccc(N4CCN(CC5CCN(c6cccc7c(N8CCC(=O)NC8=O)nn(C)c67)CC5)CC4)cc3)nc2n1-c1cccc(C(C)(C)O)n1 [Compound 143] | < 0.1 µM | 50 to 75% | – | –
C=CCn1c(=O)c2cnc(Nc3ccc(N4CCC(CN5CCC(c6cccc(NC7CCC(=O)NC7=O)c6)CC5)CC4)cc3)nc2n1-c1cccc(C(C)(C)O)n1 (stereo not drawn) [Compound 145] | 0.1 to 1 µM | 50 to 75% | – | –
C=CCn1c(=O)c2cnc(Nc3ccc(C4CCN(CC5CCN(c6ccc(N7CCC(=O)NC7=O)cc6)CC5)CC4)cc3)nc2n1-c1cccc(C(C)(C)O)n1 [Compound 146] | > 1 µM | < 50% | – | –
C=CCn1c(=O)c2cnc(Nc3ccc(N4CCC(CN5CCN(c6ccc(NC7CCC(=O)NC7=O)cc6Cl)CC5)CC4)cc3)nc2n1-c1cccc(C(C)(C)O)n1 (stereo not drawn) [Compound 147] | < 0.1 µM | > 75% | – | –
C=CCn1c(=O)c2cnc(Nc3ccc(C4CCN(C5CN(c6ccc(NC7CCC(=O)NC7=O)cc6F)C5)CC4)cc3)nc2n1-c1cccc(C(C)(C)O)n1 (stereo not drawn) [Compound 148] | < 0.1 µM | > 75% | – | –
C=CCn1c(=O)c2cnc(Nc3ccc(N4CCC(CN5CCN(c6ccc(OC7CCC(=O)NC7=O)cc6F)CC5)CC4)cc3)nc2n1-c1cccc(C(C)(C)O)n1 (stereo not drawn) [Compound 149] | < 0.1 µM | > 75% | – | –
C=CCn1c(=O)c2cnc(Nc3ccc(N4CCC(N5CC6(CN(c7ccc(NC8CCC(=O)NC8=O)cc7F)C6)C5)CC4)cc3)nc2n1-c1ccc2c(n1)[C@@](O)(CC)CC2 (stereo partly drawn) [Compound 154] | < 0.1 µM | > 75% | – | –
C=CCn1c(=O)c2cnc(Nc3ccc(N4CCN(C5CCN(c6ccc(NC7CCC(=O)NC7=O)cc6F)CC5)CC4)cc3)nc2n1-c1ccc2c(n1)[C@@](O)(CC)CC2 (stereo partly drawn) [Compound 155] | < 0.1 µM | > 75% | – | –

SMILES | DC50 (HiBiT tagged Wee1) | Dmax (HiBiT tagged Wee1) | pIC50 (NCI-H1048 cells; Homo sapiens) | pIC50 (NCI-H1048 cells)
C=CCn1c(=O)c2cnc(Nc3ccc(N4CCN(C(=O)CC5(O)CCN(c6ccc(NC7CCC(=O)NC7=O)cc6F)CC5)CC4)cc3)nc2n1-c1ccc2c(n1)[C@@](O)(CC)CC2 (stereo partly drawn) [Compound 159] | < 0.1 µM | 50 to 75% | – | –
C=CCn1c(=O)c2cnc(Nc3ccc(N4CCC(CN5CCC(c6ccc7c(N8CCC(=O)NC8=O)nn(C)c7c6)C(F)(F)C5)CC4)cc3)nc2n1-c1ccc2c(n1)[C@@](O)(CC)CC2 (stereo partly drawn) [Compound 160] | < 0.1 µM | 50 to 75% | – | –
C=CCn1c(=O)c2cnc(Nc3ccc(N4CCN(C5CC6(CCN(c7ccc(NC8CCC(=O)NC8=O)cc7F)CC6)C5)CC4)cc3)nc2n1-c1ccc2c(n1)[C@@](O)(CC)CC2 (stereo partly drawn) [Compound 165] | < 0.1 µM | > 75% | – | –
C=CCn1c(=O)c2cnc(Nc3ccc(N4CCN(CC5CCN(c6ccc(NC7CCC(=O)NC7=O)cc6F)CC5)CC4)c(Cl)c3)nc2n1-c1ccc2c(n1)[C@@](O)(CC)CC2 (stereo partly drawn) [Compound 167] | < 0.1 µM | > 75% | – | –
C=CCn1c(=O)c2cnc(Nc3ccc(N4CCN(C5CC6(C5)CN(c5ccc7c(N8CCC(=O)NC8=O)nn(C)c7c5)C6)CC4)cc3)nc2n1-c1ccc2c(n1)[C@@](O)(CC)CC2 [Compound 170] | < 0.1 µM | > 75% | – | –
C=CCn1c(=O)c2cnc(Nc3ccc(N4CCC5(CC4)CCN(C4CN(c6ccc(NC7CCC(=O)NC7=O)cc6F)C4)CC5)cc3)nc2n1-c1ccc2c(n1)[C@@](O)(CC)CC2 (stereo partly drawn) [Compound 171] | < 0.1 µM | > 75% | – | –
C=CCn1c(=O)c2cnc(Nc3ccc(N4CC(N5CC6(CCN(c7ccc(NC8CCC(=O)NC8=O)cc7F)CC6)C5)C4)cc3)nc2n1-c1ccc2c(n1)[C@@](O)(CC)CC2 (stereo partly drawn) [Compound 172] | < 0.1 µM | 50 to 75% | – | –
C=CCn1c(=O)c2cnc(Nc3ccc(N4CCN(CC5CCN(c6c(F)cc(NC7CCC(=O)NC7=O)cc6F)CC5)CC4)cc3)nc2n1-c1ccc2c(n1)[C@@](O)(CC)CC2 (stereo partly drawn) [Compound 175] | < 0.1 µM | > 75% | – | –
C=CCn1c(=O)c2cnc(Nc3ccc(N4CCN(CC5CCN(c6cc(OC)c(NC7CCC(=O)NC7=O)cc6F)CC5)CC4)cc3)nc2n1-c1ccc2c(n1)[C@@](O)(CC)CC2 (stereo partly drawn) [Compound 177] | < 0.1 µM | > 75% | – | –
C=CCn1c(=O)c2cnc(Nc3ccc(N4CCC(N5CC6(CN(c7ccc8c(N9CCC(=O)NC9=O)nn(C)c8c7)C6)C5)C(F)(F)C4)cc3)nc2n1-c1ccc2c(n1)[C@@](O)(CC)CC2 (stereo partly drawn) [Compound 178] | < 0.1 µM | 50 to 75% | – | –
C=CCn1c(=O)c2cnc(Nc3ccc(N4CCN(C5CCN(c6ccc(NC7CCC(=O)NC7=O)cc6F)CC5)[C@H](C)C4)cc3)nc2n1-c1ccc2c(n1)[C@@](O)(CC)CC2 (stereo partly drawn) [Compound 186] | < 0.1 µM | > 75% | – | –
C=CCn1c(=O)c2cnc(Nc3ccc(N4CCN(CC5CCN(c6ncc(NC7CCC(=O)NC7=O)cc6F)CC5)CC4)nc3)nc2n1-c1ccc2c(n1)[C@@](O)(CC)CC2 (stereo partly drawn) [Compound 195] | < 0.1 µM | > 75% | – | –
C=CCn1c(=O)c2cnc(Nc3ccc(N4CCC(CN5CCN(c6cc7c(cc6F)c(N6CCC(=O)NC6=O)nn7C)CC5)CC4)cc3)nc2n1-c1ccc2c(n1)[C@@](O)(CC)CC2 [Compound 201] | < 0.1 µM | > 75% | – | –
C=CCn1c(=O)c2cnc(Nc3ccc(N4CCC(CC(=O)Nc5cccc6c(N7CCC(=O)NC7=O)nn(C)c56)CC4)cc3)nc2n1-c1ccc2c(n1)[C@@](O)(CC)CC2 [Compound 202] | > 1 µM | < 50% | – | –
C=CCn1c(=O)c2cnc(Nc3ccc(N4CCN(CC5CCN(c6ccc(NC7CCC(=O)NC7=O)nc6)CC5)CC4)cc3)nc2n1-c1ccc2c(n1)[C@@](O)(CC)CC2 (stereo partly drawn) [Compound 203] | < 0.1 µM | 50 to 75% | – | –
C=CCn1c(=O)c2cnc(Nc3ccc(N4CCN(CC5CCN(c6ccc(NC7CCC(=O)NC7=O)cc6F)CC5)CC4)cc3)nc2n1-c1cccc(C(C)(C)C)n1 (stereo not drawn) [Compound 204] | < 0.1 µM | > 75% | – | –
C=CCn1c(=O)c2cnc(Nc3ccc(N4CCN(CC5CCN(c6ccc(NC7CCC(=O)NC7=O)cc6F)CC5)CC4)cc3)nc2n1-c1cccc(OC)n1 (stereo not drawn) [Compound 205] | < 0.1 µM | > 75% | – | –
C=CCn1c(=O)c2cnc(Nc3ccc(N4CCN(CC5CCN(c6ccc(NC7CCC(=O)NC7=O)cc6F)CC5)[C@H](COC)C4)cc3)nc2n1-c1ccc2c(n1)[C@@](O)(CC)CC2 (stereo partly drawn) [Compound 206] | < 0.1 µM | > 75% | – | –
